Data on 15 compounds can be found in ChEMBL document CHEMBL1201862, “PubChem BioAssay data set” (2004).

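Each compound was tested at five concentrations against cells in 96-well plates for 48 hours. Abbreviation: GI50, concentration required for 50% inhibition of growth.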 Calls of active or inactive are those of the source. Rule as the data show it: active = GI50 up to about 1.1 µM and inactive = higher. Some results are limits rather than exact numbers.

Test systems include SK-OV-3; NCI-H226; HOP-92; EKVX; OVCAR-5; COLO 205; OVCAR-4; LOX IMVI; SF-539; RPMI-8226; HCT-15; K562; SK-MEL-5; SF-268; SK-MEL-28; SR.
What all share (assay): growth of human tumour cells (NCI), 48 h

Regarding `COc1nc(NC2OC(COC(C)=O)C(OC(C)=O)C(OC(C)=O)C2OC(C)=O)c(/N=C(\C)C(C)=O)c(=O)n1C` (stereo not drawn), the GI50 in the experiment on SK-OV-3, in the experiment on NCI-H226, in the experiment on HOP-92, in the experiment with EKVX, in the experiment on OVCAR-5 and with COLO 205 was > 100 µM (inactive) in each case. Moreover, the GI50 in the experiment on OVCAR-4 was > 100 µM (inactive); in the experiment with LOX IMVI, > 100 µM (inactive); in the experiment on SF-539, > 100 µM (inactive); in the experiment on RPMI-8226, > 100 µM (inactive); with HCT-15 it was greater than 100 µM; with K562 it was > 100 µM (inactive). For the same compound, the GI50 in the experiment on SK-MEL-5 is > 100 µM (inactive).
Regarding `CNCCCCN(C)/[N+]([O-])=N\O`, the GI50 with SK-OV-3, in the experiment on NCI-H226, in the experiment with HOP-92, in the experiment on EKVX, in the experiment on OVCAR-5 and in the experiment on COLO 205 was > 100 µM (inactive) throughout. Further, the GI50 with OVCAR-4 is > 100 µM (inactive); with SF-268, > 100 µM (inactive); in the experiment on SK-MEL-28, > 100 µM (inactive); in the experiment with SF-539 it was > 100 µM (inactive); in the experiment with RPMI-8226, > 100 µM (inactive); in the experiment on HCT-15, greater than 100 µM. The GI50 with K562 and in the experiment on SK-MEL-5 was > 100 µM (inactive) throughout.
For the compound `O=C1CCC2(c3ccc(Cl)cc3)Nc3ncccc3N12` (stereo not drawn), the GI50 with SK-OV-3, in the experiment with NCI-H226, in the experiment with HOP-92, in the experiment on EKVX, in the experiment on OVCAR-5 and in the experiment with COLO 205 was > 100 µM (inactive) throughout. Besides, the GI50 in the experiment on OVCAR-4, with LOX IMVI, with SF-268, in the experiment on SK-MEL-28, in the experiment on SF-539 and with RPMI-8226 was > 100 µM (inactive) each time. Also, the GI50 in the experiment with HCT-15 was greater than 100 µM; in the experiment with K562, > 100 µM (inactive); in the experiment on SK-MEL-5, > 100 µM (inactive).
For `CCOC(=O)C1C(=S)NC(=O)C1C#N` (stereo not drawn), the GI50 in the experiment with SK-OV-3, in the experiment with HOP-92, in the experiment on EKVX, in the experiment on OVCAR-5, in the experiment with COLO 205 and with OVCAR-4 was > 100 µM (inactive) each time. Besides, the GI50 in the experiment with LOX IMVI was > 100 µM (inactive); with SF-268, > 100 µM (inactive); with SK-MEL-28, > 100 µM (inactive); in the experiment on SF-539, > 100 µM (inactive); in the experiment with RPMI-8226, > 100 µM (inactive); in the experiment with HCT-15 it was greater than 100 µM. Also, the GI50 in the experiment with K562 and in the experiment on SK-MEL-5 was > 100 µM (inactive) throughout.
Regarding `O=c1cc2ccccc2nn1Cc1cccc(Cl)c1`, the GI50 in the experiment on SK-OV-3 was > 100 µM (inactive); in the experiment with NCI-H226, 57.1 µM (inactive); with HOP-92 it was > 100 µM (inactive); in the experiment with EKVX, > 100 µM (inactive); in the experiment with OVCAR-5, > 100 µM (inactive); in the experiment with COLO 205, > 100 µM (inactive). Besides, the GI50 with OVCAR-4 was > 100 µM (inactive); with LOX IMVI it was > 100 µM (inactive); with SF-268, 90.2 µM (inactive); with SK-MEL-28, 98.9 µM (inactive); with SF-539, > 100 µM (inactive); in the experiment with RPMI-8226, 30.7 µM (inactive). The GI50 was 99.5 µM in the experiment on HCT-15, 32.4 µM (inactive) in the experiment on K562 and 37.8 µM (inactive) in the experiment with SK-MEL-5.
`CC(=O)N1CCC2(c3ccccc3N(C(C)=O)C2c2ccc(O)cc2)C1C(=O)O` (stereo not drawn): the GI50 in the experiment on SK-OV-3, in the experiment with NCI-H226, in the experiment with HOP-92, in the experiment with EKVX, in the experiment on OVCAR-5 and in the experiment on COLO 205 was > 100 µM (inactive) each time. Moreover, the GI50 with LOX IMVI, in the experiment with SR, in the experiment with SF-268, with SK-MEL-28, in the experiment with SF-539 and in the experiment with RPMI-8226 was > 100 µM (inactive) each time. Besides, the GI50 in the experiment with K562 and with SK-MEL-5 was > 100 µM (inactive) each time.
With `CC(SC(=O)Nc1ccc(/N=N/c2ccccc2)cc1)C(=O)O` (stereo not drawn), the GI50 in the experiment with NCI-H226, in the experiment on EKVX, in the experiment with OVCAR-5, with COLO 205, with OVCAR-4 and in the experiment on LOX IMVI was > 100 µM (inactive) throughout. Moreover, the GI50 in the experiment with SR is 49 µM (inactive); in the experiment with SF-268, 17.3 µM (inactive); with SK-MEL-28 it was > 100 µM (inactive); in the experiment on SF-539 it was 88.5 µM (inactive); with RPMI-8226, > 100 µM (inactive); in the experiment on HCT-15, greater than 100 µM. Besides, the GI50 in the experiment on K562 is > 100 µM (inactive).
Regarding `CC(C)(C)OC1=C(OC(C)(C)C)C(O)(c2ccccc2)C1=O` (stereo not drawn), the GI50 in the experiment on SK-OV-3, with EKVX, with OVCAR-5, with COLO 205, in the experiment on OVCAR-4 and in the experiment with LOX IMVI was > 100 µM (inactive) each time. Besides, the GI50 was > 100 µM (inactive) in the experiment with SF-268; > 100 µM (inactive) with SK-MEL-28; > 100 µM (inactive) in the experiment on SF-539; > 100 µM (inactive) in the experiment on RPMI-8226; greater than 100 µM in the experiment with HCT-15; > 100 µM (inactive) with K562. For the same compound, the GI50 with SK-MEL-5 was > 100 µM (inactive).
As for `Cc1c2cc[n+](C)cc2c(C)c2c1[nH]c1ccc(OCC(F)(F)F)cc12`, the GI50 is 3.89 µM (inactive) with SK-OV-3; 0.499 µM (active) with NCI-H226; 2.43 µM (inactive) in the experiment with HOP-92; 15 µM (inactive) in the experiment on EKVX; 1.46 µM (inactive) with COLO 205; 2.45 µM (inactive) in the experiment with OVCAR-4. The GI50 in the experiment with SR was 2.67 µM (inactive); with SF-268 it was 0.376 µM (active); with SF-539 it was 1.25 µM (inactive); with K562 it was 2.65 µM (inactive); in the experiment on SK-MEL-5 it was 1.55 µM (inactive).
As to `O=C(Cc1nc2ccccc2s1)Nc1ccc(Cl)cc1`, the GI50 in the experiment with SK-OV-3, in the experiment with NCI-H226, in the experiment on EKVX, with OVCAR-5, with COLO 205 and in the experiment with OVCAR-4 was > 100 µM (inactive) each time. Also, the GI50 in the experiment with LOX IMVI was 60.8 µM (inactive); in the experiment with SR, > 100 µM (inactive); with SF-268, > 100 µM (inactive); in the experiment on SK-MEL-28 it was > 100 µM (inactive); in the experiment on SF-539 it was > 100 µM (inactive); in the experiment on K562, 38.9 µM (inactive). In addition, the GI50 with SK-MEL-5 was 83.8 µM (inactive).
`Fc1ccccc1C1SCc2nc3ccccc3n21` (stereo not drawn): the GI50 with SK-OV-3 was 34.8 µM (inactive); with NCI-H226, 76.7 µM (inactive); in the experiment with HOP-92, 19.7 µM (inactive); with EKVX, 37.5 µM (inactive); in the experiment on OVCAR-5, 41.5 µM (inactive); in the experiment with COLO 205 it was 77.3 µM (inactive). The GI50 in the experiment with SR is 38.1 µM (inactive); with SF-268, 69.8 µM (inactive); in the experiment on SK-MEL-28, > 100 µM (inactive); in the experiment with SF-539 it was > 100 µM (inactive); in the experiment with RPMI-8226, 25.5 µM (inactive); with K562, 16.3 µM (inactive). The GI50 with SK-MEL-5 is 18.8 µM (inactive).
Consider `CC(=O)OC1(C#N)CC2OC1C1C2N1C(=O)OC(C)(C)C` (stereo not drawn), for which the GI50 in the experiment on SK-OV-3, in the experiment with NCI-H226, in the experiment with HOP-92, in the experiment with EKVX, in the experiment with OVCAR-5 and with COLO 205 was > 100 µM (inactive) throughout. Besides, the GI50 in the experiment with OVCAR-4, with LOX IMVI, with SF-268, in the experiment with SK-MEL-28, with SF-539 and in the experiment with RPMI-8226 was > 100 µM (inactive) in each case. Also, the GI50 with HCT-15 is greater than 100 µM; with K562 it was > 100 µM (inactive); in the experiment with SK-MEL-5, > 100 µM (inactive).
`N#CC1CC2(CCN1C(=O)c1ccccc1)OCCO2` (stereo not drawn): the GI50 in the experiment on SK-OV-3, in the experiment with NCI-H226, in the experiment on HOP-92, with EKVX, in the experiment with OVCAR-5 and in the experiment with COLO 205 was > 100 µM (inactive) in each case. For the same compound, the GI50 with OVCAR-4 was > 100 µM (inactive); in the experiment with SR, > 100 µM (inactive); in the experiment on SF-268 it was > 100 µM (inactive); in the experiment with SF-539 it was > 100 µM (inactive); in the experiment with RPMI-8226, > 100 µM (inactive); in the experiment on HCT-15 it was greater than 100 µM. The GI50 with K562 and in the experiment on SK-MEL-5 was > 100 µM (inactive) in each case.
On to `COc1ccc(-c2cc(=O)c3ccc(O)cc3o2)c(OC)c1OC`, for which the GI50 in the experiment with SK-OV-3 was 90.6 µM (inactive); in the experiment with NCI-H226, > 100 µM (inactive); with HOP-92, 82.2 µM (inactive); in the experiment on EKVX it was 87.3 µM (inactive); in the experiment on OVCAR-5, > 10 µM (inactive); in the experiment on COLO 205, 95.9 µM (inactive). Also, the GI50 with OVCAR-4 is 88.7 µM (inactive); in the experiment on LOX IMVI, 60.7 µM (inactive); with SF-268, 41.3 µM (inactive); in the experiment on SK-MEL-28, 64.3 µM (inactive); with SF-539, 46 µM (inactive); in the experiment on RPMI-8226, 18.9 µM (inactive). For the same compound, the GI50 with K562 is 29.6 µM (inactive).
On to `CSc1c(C)c(C)nn1-c1ccccc1`, for which the GI50 in the experiment with SK-OV-3, in the experiment with EKVX, in the experiment on OVCAR-5, in the experiment on COLO 205, with OVCAR-4 and in the experiment on LOX IMVI was > 100 µM (inactive) in each case. In addition, the GI50 in the experiment with SF-268 was > 100 µM (inactive); in the experiment with SK-MEL-28, > 100 µM (inactive); with SF-539 it was > 100 µM (inactive); with RPMI-8226 it was > 100 µM (inactive); in the experiment on HCT-15, greater than 100 µM; in the experiment on K562 it was > 100 µM (inactive). Moreover, in the experiment on SK-MEL-5, the GI50 is > 100 µM (inactive).
